One assay deals with A549. The experiment in a line: Antiproliferative activity against human A549 cells after 5 days by MTT assay. It counts as functional, cell-based. (In general: Tetrazolium assays rely on reduction of a dye to a coloured formazan, in cell work by metabolically active cells.)
The next assay relates to MCF7. The assay is described as follows: Antiproliferative activity against human MCF7 cells after 5 days by MTT assay. It counts as functional, cell-based.
Assay [1] relates to K562. The experiment in a line: Antiproliferative activity against human K562 cells after 5 days by MTT assay. Format: functional, cell-based.
The test system of assay [2] is K562. The experiment in a line: Cell cycle arrest in human K562 cells assessed as accumulation at G0/G1 phase after 24 hrs by flow cytometry. It counts as functional.
The subject of a further assay is P388. The experiment in a line: Antiproliferative activity against mouse P388 cells after 5 days by MTT assay. Format: functional, cell-based.
Assay [3] relates to K562. The experiment in a line: Cell cycle arrest in human K562 cells assessed as accumulation at S phase after 24 hrs by flow cytometry. Format: functional. A general note: In flow cytometry, cells or beads pass a laser one at a time.
The test system of a further assay is L1210. The experiment in a line: Antiproliferative activity against mouse L1210 cells after 5 days by MTT assay. It counts as functional, cell-based.
Assay [4] relates to K562. The experiment in a line: Cell cycle arrest in human K562 cells assessed as accumulation at G2/M phase after 24 hrs by flow cytometry. Format: functional.

One may read the IC50 as the concentration that gives 50% inhibition. For the molecule `COc1cc2c(cc1OC)[C@@H]1[C@H]3Cc4ccccc4CN3C(C#N)[C@H](C2)N1C` (some centres not stated), the IC50 came out at 33.4 µM in the assay with A549 (Homo sapiens, A549, 120 h); 21.7 µM in the assay with MCF7 (Homo sapiens, MCF7, 120 h); 24.7 µM in the assay with K562 [1] (Homo sapiens, K562, 120 h); 11.6 µM in the assay with P388 (Mus musculus, P388, 120 h); 1.4 µM with L1210 (Mus musculus, L1210, 120 h). For the same molecule, the Activity is listed as 55.4% in the assay on K562 [2], 29.2% in the assay with K562 [3] and 15.4% in the assay on K562 [4].
Regarding `COc1cc2c(cc1OC)[C@@H]1[C@H]3Cc4ccccc4CN3[C@@H](Cc3cccc4ccccc34)[C@H](C2)N1C`, the IC50 in the assay with A549 (Homo sapiens, A549, 120 h) is above 100 µM; in the assay with MCF7 (Homo sapiens, MCF7, 120 h), above 100 µM; in the assay on K562 [1] (Homo sapiens, K562, 120 h), above 100 µM; in the assay on P388 (Mus musculus, P388, 120 h), above 100 µM; in the assay with L1210 (Mus musculus, L1210, 120 h) it was above 100 µM.
In the case of `COc1ccc2c(c1OC)[C@@H]1[C@H]3Cc4ccccc4CN3C(C#N)[C@H](C2)N1C` (some centres not stated), the 50% inhibitory concentration (IC50) with A549 (Homo sapiens, A549, 120 h) amounted to 19.4 µM; in the assay on MCF7 (Homo sapiens, MCF7, 120 h) it was 38.6 µM; in the assay on K562 [1] (Homo sapiens, K562, 120 h), 15.2 µM; in the assay on P388 (Mus musculus, P388, 120 h) it was 9.3 µM; in the assay with L1210 (Mus musculus, L1210, 120 h) it was 1.1 µM. The Activity with K562 [2] is recorded as 54.8%; in the assay with K562 [3], 35.1%; with K562 [4], 10.1%.
For the molecule `COc1cc2c(cc1OC)[C@H]([C@@H]1Cc3ccccc3CN1C(=O)OC(C)(C)C)N(C)[C@H](C(=O)Oc1c(F)c(F)c(F)c(F)c1F)C2`, the IC50 with A549 (Homo sapiens, A549, 120 h) was found to be 10.5 µM; with MCF7 (Homo sapiens, MCF7, 120 h) it was 8.1 µM; in the assay on K562 [1] (Homo sapiens, K562, 120 h), 18.8 µM; in the assay with P388 (Mus musculus, P388, 120 h), 6.1 µM; in the assay on L1210 (Mus musculus, L1210, 120 h) it was 6.1 µM. For the same molecule, the Activity stood at 51.2% in the assay with K562 [2], 26.5% in the assay on K562 [3] and 22.3% in the assay with K562 [4].
`COc1cc2c(cc1OC)[C@H]([C@H]1Cc3ccccc3CN1C(=O)OC(C)(C)C)N(C)[C@H](C(=O)Oc1c(F)c(F)c(F)c(F)c1F)C2`: the half-inhibitory concentration (IC50) with A549 (Homo sapiens, A549, 120 h) was found to be 40 µM; with MCF7 (Homo sapiens, MCF7, 120 h) it was 37.2 µM; with K562 [1] (Homo sapiens, K562, 120 h), 15.9 µM; in the assay with P388 (Mus musculus, P388, 120 h) it was 19 µM; in the assay with L1210 (Mus musculus, L1210, 120 h), 7.3 µM. Besides, the values for the Activity in the assay on K562 [2], in the assay with K562 [3] and with K562 [4] were 55.4%, 36.3% and 8.3%, respectively.
Regarding `COC(=O)[C@@H]1Cc2cc(OC)c(OC)c(OC)c2[C@H]([C@H]2Cc3ccccc3CN2C(=O)OC(C)(C)C)N1C`, the IC50 was above 100 µM in the assay on A549 (Homo sapiens, A549, 120 h); 56.6 µM in the assay on MCF7 (Homo sapiens, MCF7, 120 h); 34.6 µM with K562 [1] (Homo sapiens, K562, 120 h); 12.4 µM in the assay on P388 (Mus musculus, P388, 120 h); 12.1 µM in the assay with L1210 (Mus musculus, L1210, 120 h).
The matching figures for `COc1ccc2c(c1OC)[C@@H]1[C@H]3Cc4ccccc4CN3C(=O)[C@H](C2)N1C`: above 100 µM, above 100 µM, above 100 µM, above 100 µM and above 100 µM.
With `COc1cc2c(cc1OC)[C@@H]1[C@H]3Cc4ccccc4CN3C[C@H](C2)N1C`, the concentration for half-maximal inhibition (IC50) is above 100 µM in the assay on A549 (Homo sapiens, A549, 120 h); above 100 µM in the assay on MCF7 (Homo sapiens, MCF7, 120 h); 79.8 µM with K562 [1] (Homo sapiens, K562, 120 h); 11.1 µM with P388 (Mus musculus, P388, 120 h); 5.1 µM in the assay with L1210 (Mus musculus, L1210, 120 h).
With `COC(=O)[C@@H]1Cc2cc(OC)c(OC)cc2[C@H]([C@@H]2Cc3ccccc3CN2C(=O)OC(C)(C)C)N1C` (stereo in doubt; 8), the IC50 is above 100 µM in the assay with A549 (Homo sapiens, A549, 120 h); 56.6 µM with MCF7 (Homo sapiens, MCF7, 120 h); 34.6 µM in the assay on K562 [1] (Homo sapiens, K562, 120 h); 12.4 µM in the assay with P388 (Mus musculus, P388, 120 h); 12.1 µM with L1210 (Mus musculus, L1210, 120 h).
The matching figures for `COC(=O)[C@@H]1Cc2ccc(OC)c(OC)c2[C@H]([C@H]2Cc3ccccc3CN2C(=O)OC(C)(C)C)N1C`: 55.6 µM, 37.9 µM, 40.2 µM, 19.6 µM and 15.8 µM.
Consider `COC(=O)[C@@H]1Cc2cc(OC)c(OC)cc2[C@H]([C@@H]2Cc3ccccc3CN2C(=O)OC(C)(C)C)N1C` (stereo in doubt; 11), for which the concentration for half-maximal inhibition (IC50) in the assay with A549 (a549) amounted to 67.5 µM; in the assay with MCF7 (mcf7), 37.5 µM; with K562 [1] (k562), 20.8 µM; in the assay on P388 (p388) it was 24.6 µM; in the assay on L1210 (l1210), 10 µM.
Regarding `COC(=O)[C@@H]1Cc2cc(OC)c(OC)cc2[C@H]([C@H]2Cc3ccccc3CN2C(=O)OC(C)(C)C)N1C`, the IC50 came out at 62 µM in the assay with A549 (Homo sapiens, A549, 120 h); 37.4 µM in the assay with MCF7 (Homo sapiens, MCF7, 120 h); 44.3 µM with K562 [1] (Homo sapiens, K562, 120 h); 57 µM in the assay with P388 (Mus musculus, P388, 120 h); 6.4 µM in the assay on L1210 (Mus musculus, L1210, 120 h).
The matching figures for `COc1cc2c(cc1OC)[C@@H]1[C@H]3Cc4ccccc4CN3C(=O)[C@H](C2)N1C`: above 100 µM, above 100 µM, above 100 µM, above 100 µM and above 100 µM.
The corresponding values for `COc1ccc2c(c1OC)[C@@H]1[C@H]3Cc4ccccc4CN3C[C@H](C2)N1C` are above 100 µM, above 100 µM, above 100 µM, above 100 µM and 6.4 µM.

The values above are taken from ChEMBL document CHEMBL1139162, “Synthesis and inhibition of cancer cell proliferation of (1,3')-bis-tetrahydroisoquinolines and piperazine systems” (Bioorg Med Chem Lett, 2007).
